Data on 46 compounds can be found in PubChem BioAssay AID652148 (Molecular Libraries Program, Specialized Chemistry Center, …, 2013).

Activity calls are given as the source filed them. How the calls were made is not given here.

By IC50 is commonly meant the concentration that gives 50% inhibition.

In the first experiment the target is Rho GTPase-activating protein 1 (Homo sapiens) (UniProt Q07960). In words: ARHGAP1 GAP activity inhibitors on Rac1 – biochemical, Biomol green phosphate read-out, selectivity assay for MgcRacGAP inhibitor project, dose response (AID 652148). Conditions: p50RhoGAP-stimulated Rac1 GTP hydrolysis.
Sequence of Rho GTPase-activating protein 1 (Homo sapiens) (Q07960 whole entry, looked up): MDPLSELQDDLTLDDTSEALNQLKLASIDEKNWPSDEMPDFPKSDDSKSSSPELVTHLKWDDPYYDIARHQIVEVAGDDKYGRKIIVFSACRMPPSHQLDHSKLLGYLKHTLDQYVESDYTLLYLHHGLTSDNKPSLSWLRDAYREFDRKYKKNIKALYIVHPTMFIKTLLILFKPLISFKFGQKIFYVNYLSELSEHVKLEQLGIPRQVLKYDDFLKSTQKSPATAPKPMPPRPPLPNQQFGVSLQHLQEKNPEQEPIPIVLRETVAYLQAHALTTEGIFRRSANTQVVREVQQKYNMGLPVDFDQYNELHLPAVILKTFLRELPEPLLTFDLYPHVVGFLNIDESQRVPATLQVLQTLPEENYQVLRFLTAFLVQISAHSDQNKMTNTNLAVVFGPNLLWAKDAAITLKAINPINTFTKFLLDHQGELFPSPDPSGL
As to `O=c1c2ccccc2sn1-c1ccc(F)cc1`, the IC50 was 35.4 µM. As to `O=C(O)c1cc(N2N=C(C(F)(F)F)/C(=C/C=C/c3ccco3)C2=O)ccc1Cl`, the IC50 came out at 4.68 µM. Regarding `O=C1C(=Cc2ccco2)CCC1=Cc1ccco1`, the half-inhibitory concentration (IC50) was found to be 26.8 µM.

With `CN(C)c1nc(=NCc2cccs2)ss1`, the IC50 came out at 14.7 µM.

As for `O=C(O)c1cccc(-n2sc3ccccc3c2=O)c1`, the IC50 came to 10.3 µM. With `Cc1cc(C)c2c(=N)c3ccccc3n(CCCCCCCCn3c4ccccc4c(=N)c4c(C)cc(C)nc43)c2n1`, the IC50 was determined as 22.2 µM. Still for that read-out and setting: the same measure for `O=C1NC(=S)N(c2ccccc2)C(=O)/C1=C/c1ccco1`: 3.99 µM; for `Cn1ccc(=Nc2ccc(NC(=O)c3ccc(N=c4ccn(C)c5ccc([N+](=O)[O-])cc45)cc3)cc2)cc1`: 22.2 µM; for `CN(C)c1ccc(C=c2c3cc(O)ccc3n3c2cc(-c2ccccc2)[n+]3C)cc1`: 36.2 µM. As for `O=c1c2ccccc2sn1-c1cccc(Cl)c1`, the IC50 came out at 11.2 µM.

As for `O=C1C(Cl)=C(NC(=O)c2ccccc2)C(=O)C(Cl)=C1NC(=O)c1ccccc1`, the IC50 was 46 µM. Regarding `O=c1c2cc(F)ccc2sn1-c1ccccc1Cl`, the half-inhibitory concentration (IC50) is 24.5 µM. As to `O=c1c2ccccc2sn1-c1ccc(Cl)cc1`, the IC50 worked out at 12.3 µM.

As to `O=C1C=CC(=O)c2c(O)c(N3CCN(CCO)CC3)c(Cl)c(O)c21`, the IC50 was 36.5 µM. Take `CCN1CCN(Cc2ccc(NC(=O)c3ccc(C)c(/C=C/c4cnc(Nc5cc(N6CCNCC6)nc(C)n5)cn4)c3)cc2C(F)(F)F)CC1`: the IC50 came out at 54.1 µM. Same read-out and setting: the value for `O=c1c2cc(F)ccc2sn1-c1ccccc1` was 2.06 µM; that for `CCN(CC)c1ccc(C(=C2C=CC(=[N+](CC)CC)C=C2)c2ccc(N(CC)CC)cc2)cc1` was 22.1 µM. For the compound `CC(=O)Nc1ccc2sn(-c3ccccc3)c(=O)c2c1`, the IC50 was 22.3 µM.

Regarding `O=C1C=CC(=O)N1c1ccccc1N1C(=O)C=CC1=O`, the IC50 is 15.7 µM. Still for that read-out and setting: the same measure for `CN(C)c1ncc(C2=C(Cl)C(=O)C(N3CCCC3)=C(Cl)C2=O)s1`: 10.7 µM. Regarding `COc1ccc(-n2sc3ccc(F)cc3c2=O)cc1`, the IC50 was 15 µM. Regarding `O=C(O)C1CSC(c2ccco2)N1` (stereo unspecified), the IC50 amounted to 16.1 µM. For the compound `O=C1C=CC(=O)c2c(O)c(N3CCN(CCOCCO)CC3)c(Br)c(O)c21`, the concentration for half-maximal inhibition (IC50) turned out to be 32.6 µM. Still for that read-out and setting: the same measure for `CC1OC(CC(=O)O)CC2=C1C(=O)c1c(O)cccc1C2=O` (stereo unspecified): 8.81 µM; for `CSc1nc(N)c(N=Nc2ccc([As](=O)(O)O)cc2)c(=O)[nH]1`: 3.09 µM; for `O=C(Nc1ccccc1Cl)/C(Cl)=C(\Cl)S(=O)c1ccccc1` (stereo unspecified): 20.7 µM.

Staying with this experiment, now noted: p50RhoGAP-stimulated Rac1 GTP hydrolysis, at 100 µM (top of the series).
On to `COC(=O)c1cccc(-n2sc3ccccc3c2=O)c1`, for which the inhibition result is “inactive”.

For the compound `COc1ccc(-n2sc3ccccc3c2=O)cc1`, the inhibition entry is “inactive”. Take `Nc1ccc(OCc2ccco2)cc1`: the inhibition entry is “inactive”. As for `CN(C)c1ccc(/C=C/c2cc[n+](C)c3ccccc23)cc1`, the inhibition entry is “inactive”.

On to `O=c1c2ccc(F)cc2sn1-c1ccccc1`, for which the inhibition entry is “inactive”. Still for that read-out and setting: the same measure for `O=C(O)c1cc(N2C(=O)C=CC2=O)cc(N2C(=O)C=CC2=O)c1`: “inactive”. Take `O=c1c2sc3ccccc3c2[nH]c(=S)n1CCN1CCOCC1`: the inhibition entry was “inactive”. Turning to `Cc1cc(N)c2cc(NC(=O)/C=C/c3ccccc3Cl)ccc2n1`, the inhibition result is “inactive”.

Turning to `COc1ccc(Nc2ccc3ccccc3c2)cc1`, the inhibition result was “inactive”. As for `C[n+]1c(-c2ccc(C=NNC(=O)c3ccc(C(=O)NN=Cc4ccc(-c5cn6ccccc6[n+]5C)cc4)cc3)cc2)cn2ccccc21`, the inhibition entry is “inactive”. Same read-out and setting: the value for `Nc1n[nH]c(=S)n1/N=C1/C(=O)Nc2ccccc21` was “inactive”; that for `O=C1C(SCCO)=C(SCCO)C(=O)c2ccccc21` was “inactive”; that for `CC1=NNC(=O)C1Br` (stereo unspecified) was “inactive”. Still for that read-out and setting: the same measure for `Cc1ccc(-n2sc3cc(F)ccc3c2=O)c(C)c1`: “inactive”; for `O=c1c2ccccc2sn1-c1ccc(Cl)cc1Cl`: “inactive”; for `Cc1ccc(C)c(-n2sc3ccc(F)cc3c2=O)c1`: “inactive”. Same read-out and setting: the same measure for `COc1ccc(/C=N/Nc2cc(C)nc3ccc(OC)cc23)c(OC)c1`: “inactive”; for `O=c1c2ccccc2sn1-c1ccccc1F`: “inactive”; for `COc1ccc(NC2CCCN(C(=O)C3(C)CCCCC3)C2)cc1` (stereo unspecified): “inactive”. `Cc1c(Cl)sn(-c2ccc(Cl)cc2)c1=O`: the inhibition result is “inactive”.
